As a reminder, the inhibition is the drop in the measured response relative to a control, in per cent. A word on the IC50: it is the point on the concentration scale where inhibition reaches its midpoint.

PDGFR, sequence (P09619 33-1106): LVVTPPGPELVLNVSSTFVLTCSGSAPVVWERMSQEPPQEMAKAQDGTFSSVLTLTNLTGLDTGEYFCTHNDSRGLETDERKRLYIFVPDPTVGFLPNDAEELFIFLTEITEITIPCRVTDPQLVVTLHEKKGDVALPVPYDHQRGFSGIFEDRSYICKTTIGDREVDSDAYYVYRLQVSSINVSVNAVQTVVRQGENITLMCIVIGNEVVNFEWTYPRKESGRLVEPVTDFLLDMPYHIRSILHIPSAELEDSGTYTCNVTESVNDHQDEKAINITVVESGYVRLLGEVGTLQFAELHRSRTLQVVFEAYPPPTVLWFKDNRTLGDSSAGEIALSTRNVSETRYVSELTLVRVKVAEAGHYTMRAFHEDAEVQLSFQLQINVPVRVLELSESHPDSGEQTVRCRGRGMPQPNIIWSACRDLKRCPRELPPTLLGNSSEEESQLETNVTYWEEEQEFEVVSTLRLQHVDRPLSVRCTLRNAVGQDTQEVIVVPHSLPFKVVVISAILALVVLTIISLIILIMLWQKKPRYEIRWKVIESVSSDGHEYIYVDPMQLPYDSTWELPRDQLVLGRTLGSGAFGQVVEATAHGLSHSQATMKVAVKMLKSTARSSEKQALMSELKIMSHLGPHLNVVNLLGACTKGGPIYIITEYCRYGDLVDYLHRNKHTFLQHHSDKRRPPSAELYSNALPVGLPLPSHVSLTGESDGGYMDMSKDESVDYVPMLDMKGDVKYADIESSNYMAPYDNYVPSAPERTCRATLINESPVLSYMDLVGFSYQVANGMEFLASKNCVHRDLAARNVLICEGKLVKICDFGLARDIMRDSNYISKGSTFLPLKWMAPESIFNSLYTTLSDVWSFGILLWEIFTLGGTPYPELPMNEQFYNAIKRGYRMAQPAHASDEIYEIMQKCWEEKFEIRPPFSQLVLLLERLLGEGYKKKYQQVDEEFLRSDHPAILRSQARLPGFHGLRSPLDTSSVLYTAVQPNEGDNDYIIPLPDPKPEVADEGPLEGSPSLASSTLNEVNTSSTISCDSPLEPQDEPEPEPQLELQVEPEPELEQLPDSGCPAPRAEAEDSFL

One assay has as its system C6 cells. The assay is described as follows: C6 SRB growth assay. The class given is cell-based, rat. To be noted: Rattus norvegicus, C6; at 25 μM. In general terms: In SRB staining, fixed cells bind dye roughly in proportion to their protein.
In the case of `Cc1noc(C)c1C(=O)NCc1ccc(C(F)(F)F)cc1` [Compound P22, N-4-trifluoromethlybenzy 3,5-dimethylisoxazole-4-carboxamide], the inhibition at 25 µM is approximately 10%.

The assay is the same for the next values; noted with them: Rattus norvegicus, C6; read-out: C6 SRB IC50.
With `N#CC(C(=O)N1CCOCC1)C(=S)Nc1ccccc1Cl` (centres unmarked) [Compound P19, N-2-chlorophenyl (2-cyano-2-N-morpholinocarbonyl) thioacetamide], the IC50 is more than 50 µM.
Still for that read-out and setting: the result for `Cc1noc(C)c1C(=O)NCc1ccc(C(F)(F)F)cc1` [Compound P22, N-4-trifluoromethlybenzy 3,5-dimethylisoxazole-4-carboxamide] reads more than 25 µM; that for `Cc1oncc1C(=O)NCc1ccc(C(F)(F)F)cc1` [Compound P23], 18 µM.
The same measure, in the same setting: to `CC(O)=C(C#N)C(=O)NCc1ccc(C(F)(F)F)cc1` [Compound P24, 1-trifluorometnlybenzylaminocarbonly-1-cyano-2-hydroxy propene] belongs 14 µM.

The next assay addresses PDGFR (Homo sapiens, UniProt P09619). Kind of assay: PDGF-stimulated receptor phosphorylation in U1242 cells, ELISA. The class given is cell-based.
Conditions: not given
Further details: U1242 (PDGF-β receptor); host or cells: U1242 MG glioma cells. Here is the method:
For ELISA assays, cells were grown to 80-90% confluency in growth medium and seeded in 96-well tissue culture plates in 0.5% serum at 25,000 to 30,000 cells per well. After overnight incubation in 0.5% serum-containingmedium, cells were changed to serum-free medium and treated with test compound for 2 hr in a 5% CO2, 37° C. incubator. Cells were then stimulated with ligand for 5-10 min followed by lysis with HNTG (20 mM Hepes, 150 mM NaCl, 10% glycerol, 5 mM EDTA, 5 mM Na3 VO4 0.2% Triton X-100, and 2 mM NaPyr). […] Lysates were incubated with shaking for 1 hr at room temperature. The plates were washed with TBST four times and then incubated with polyclonol anti-phosphotyrosine antibody at room temperature for 30 min. Excess anti-phosphotyrosine antibody was removed by rinsing the plate with TBST four times. Goat anti-rabbit IgG antibody was added to the ELISA plate for 30 min at room temperature followed by rinsing with TBST four more times.
U1242 MG cells were plated in 96-well plates at a concentration of 5×10^4 cells/well in cultured media containing 0.5% FBS. The cells were incubated for 24 hours. The cells were then treated with a particular compound for 2 hours followed by the addition of 100 ng/ml PDGF-BB and incubation for 10 minutes.
Cells were lysed in 0.2 M Hepes, 0.15 M NaCl, 10% V/V glycerol, 0.04% Triton X-100, 5 mM EDTA, 5 MM Na^+ vanadate and […] Na^+ pyrophosphate. Cell lysates were then added to an ELISA plate coated with an anti-PDGF receptor antibody (Genzyme). ELISA plates were coated at […] of antibody/well in […] of PBS for 18 hours at 4° C. prior to the addition of the lysate.
The lysate was incubated in the coated plates for 1 hour and then washed four times in TBST (35 mM Tris-HCl pH 7.0, 0.15 M NaCl, 0.1% Triton X-100). Anti-phosphotyrosine antibody ([…] in PBS) was added and the mixture was incubated for 30 minutes at room temperature. The wells were then washed four times in TBST, a secondary antibody conjugated to POD (TAGO) was added to each well, and the treated wells were incubated for 30 minutes at room temperature. The wells were then washed four times in TBST, ABTS/H2 O2 solution was added to each well and the wells were incubated for two minutes. Absorbance was then measured at 410 nm.
(In general: An ELISA detects its analyte on a solid surface through an enzyme-linked reagent.)
As for `N#CC(=Cc1c[nH]c2ccccc12)C(N)=C(C#N)C#N` [Compound D12], the 50% inhibitory concentration (IC50) turned out to be 60 µM.

Staying with this assay, now noted: 100 ng/ml PDGF-BB; read-out: ELISA P-TYR U1242 IC50.
Regarding `CC(C)CC(O)=C(C#N)C(=O)Nc1ccc(C(F)(F)F)cc1` [Compound B18, 2-Hexeneamide, 2-cyano-3-hydroxy-5-methyl-N-[(4-trifluoromethyl)phenyl]], the IC50 is 160 µM.
Still for that read-out and setting: to `Oc1cc2ncc(-c3ccccc3)nc2cc1O` [Compound G20] belongs more than 100 µM; to `N#CC(C(=O)Nc1ccc(C(F)(F)F)cc1)=C(O)Cc1ccccc1` [Compound B17, 2-Butenamide, 2-cyano-3-hydroxy-4-phenyl-N-[(4-trifluoromethyl)phenyl]], 125 µM; to `N#CC(C(=O)Nc1ccc(C(F)(F)F)cc1)=C(O)c1c(F)c(F)c(F)c(F)c1F` [Compound B15, 2-Propenamide, 2-cyano-3-hydroxy-3-(pentafluorophenyl)-N-[(4-trifluoromethyl)phenyl]], 120 µM.
Same read-out and setting: the result for `COc1cc2nc(-c3ccccc3)cnc2cc1O` [Compound G17] reads 100 µM; that for `O=C(NN=Cc1ccc(O)cc1)C(=O)Nc1cccc([N+](=O)[O-])c1` [Compound E16], 125 µM.
Still for that read-out and setting: the result for `O=C(NN=Cc1ccccc1O)C(=O)Nc1cccc(O)c1` [Compound E12] reads 180 µM; that for `N#CC(=Cc1ccc(O)c(O)c1)c1[nH]nc(N)c1C#N` [Compound C11], 70 µM.
Regarding `c1csc(-c2cnc3ccccc3n2)c1` [Compound G15], the IC50 came out at 100 µM.
The same measure, in the same setting: to `O=C(NN=Cc1ccc(O)c(O)c1)C(=O)Nc1cccc(O)c1` [Compound E11] belongs 90 µM; to `O=c1c2ccccc2nc2n1CCOC2=Cc1cccc(O)c1` [Compound F12], 70 µM.
Same read-out and setting: the result for `CC(NC(=O)C(C#N)=Cc1ccc2[nH]ccc2c1)c1ccccc1` (single isomer, unassigned) [Compound I10] reads 90 µM.
Still for that read-out and setting: to `CN(C)CCCn1cc(C=C(C#N)C(=O)c2ccc(O)c(O)c2)c2ccccc21` [Compound D16] belongs 50 µM.
On to `N#CC(C(=O)Nc1ccc(C(F)(F)F)cc1)=C(O)C1CCCCC1` [Compound B13, 2-Propenamide, 2-cyano-3-hydroxy-3-cyclohexyl-N-[(4-trifluoromethyl)phenyl]], for which the concentration for half-maximal inhibition (IC50) was 180 µM.
On the same count and under the same terms, to `CN(C)c1ccc(NC(=O)C(=O)NN=Cc2ccc(O)c(O)c2)cc1` [Compound E10] belongs 45 µM.
With `CC1(C)C(C(O)=C(C#N)C(=O)Nc2ccc(C(F)(F)F)cc2)C1(C)C` [Compound B14, 2-cyano-3-hydroxy-3-(2,2,3,3-tetramethylcyclopropyl)-propanol-4-(trifluoromethyl)anilide], the IC50 was found to be 180 µM.
For the compound `CC(O)=C(C#N)C(=O)Nc1ccc([N+](=O)[O-])cc1` [Compound B10], the IC50 was 180 µM.
Still for that read-out and setting: to `N#CCCn1cc(C=C(C#N)C(=O)c2ccc(O)c(O)c2)c2ccccc21` [Compound D17] belongs more than 100 µM.
The same measure, in the same setting: the result for `N#CC(C(=O)Nc1ccc(C(F)(F)F)cc1)=C(O)C(c1ccccc1)c1ccccc1` [Compound B19, 2-Butenamide, 2-cyano-3-hydroxy-4,4-diphenyl-N-[(4-trifluoromethyl)phenyl]] reads 100 µM; that for `Cc1ccc2ncc(-c3ccccc3)nc2c1` [Compound G19], 90 µM; that for `O=c1c2ccccc2nc2n1CCOC2=Cc1ccc(O)c(O)c1` [Compound F11], 100 µM.
The same measure, in the same setting: to `N#CC(C(=O)Nc1ccc(C(F)(F)F)cc1)=C(O)c1ccc(F)cc1` [Compound B12, 2-Propenamide, 2-cyano-3-hydroxy-3-(4-fluorophenyl)-N-[(4-trifluoromethyl)phenyl]] belongs 100 µM; to `COc1ccccc1NC(=O)C(=O)NN=Cc1ccc(O)c(O)c1` [Compound E13], more than 100 µM.
